PMC9090415, “Discovery of small molecule inhibitors of Plasmodium falciparum apicoplast DNA polymerase” (Journal of Enzyme Inhibition and Medicinal Chemistry, 2022)

Target: P. falciparum apicoplast DNA polymerase (Pf-apPOL) (Plasmodium falciparum, UniProt Q8ILY1)
Test: Fluorescence-based high-throughput DNA polymerase assay (molecular beacon), primary screen and dose-response
Format: biochemical
Details: for DNA Pol: 90 min, 10 µM
Description: The HT assay employs a molecular beacon, a stem-loop DNA template with a Cy3 dye and the Black Hole Quencher on the 3′ and 5′ ends of the DNA, respectively. Pf-apPOL concentration is based on a calculated absorptivity of ε280 = 56750 M^−1 cm^−1. Reactions were carried out at 25 °C, using Corning 3575 […] (well-volume, 20 µL). Assays testing for compound inhibition composed of reaction buffer (pH 7.9 in 50 mM potassium acetate, 20 mM Tris-acetate and 10 mM magnesium acetate), Pf-apPOL (20 nM), DNA substrate (20 nM), dNTPs (6 µM), and compound (10 µM in DMSO). The DNA and nucleotide substrates (dNTPs) were at concentrations of 20 nM and 6 µM, respectively, in the assay. Pf-apPOL was incubated in the reaction buffer with dNTPs and the compound of interest (10 µM, in the assay) at 25 °C for 10 min. The DNA substrate was then added and the reaction was allowed to proceed for 90 min at 25 °C.
Each assay plate contained 16 negative controls (no Pf-apPOL, DMSO present) and 16 positive controls (Pf-apPOL present, no DMSO). The fluorescence of each well was determined using a BioTek Synergy Neo fluorescence plate reader using excitation and emission wavelengths of 555 and 570 nm, respectively.
In the above, Min is the average of fluorescence emission of the negative controls (substrate only), Max the average fluorescence emission from the positive controls (enzyme + substrate), and Test the emission from the assays in the presence of compounds (enzyme + compound + substrates). […] […] The IC50 of each compound was determined using Equation (2): (2) IC50= Vmax/(1+ (I/IC50)^n)
In the above, n measures cooperativity, with n > 1 indicating synergistic binding of more than a single molecule of the compound.
To identify apPOL inhibitors we utilised our previously developed high-throughput DNA polymerase assay. The HT assay is based on a molecular beacon DNA template that forms a stem-loop with a Cy3 dye and the Black Hole Quencher on the 3′ and 5′ ends of the DNA, respectively. DNA polymerase activity extends an annealed primer through the stem region, displacing the fluorophore from the quencher, thereby increasing its fluorescence (Figure 1(A)). The assay accurately recapitulates the kinetic behaviour of apPOL, as measured through more conventional low-throughput gel-based assays. The Z′ factor for the assay described here was 0.9 across all plates (data not shown).
Figure 1. High-throughput screening. (A) The fluorescent-based DNA polymerase assay used to screen the compound libraries. The DNA template strand is a hairpin loop with a primer annealed to the loop. The 3’ end of the primer is 11 bases away from the 6 bp duplex. Strand displacement activity of the DNA polymerase separates the Cy3 dye from the Black hole quencher leading to an increase in fluorescent signal. (B) The high-throughput assay workflow. The DNA polymerase is incubated with […] compound for 10 min prior to addition of the hairpin substrate. The reaction is quenched at 3 different time points and the fluorescent signal is measured and % inhibition is determined using the provided equation.

Chain of P. falciparum apicoplast DNA polymerase (Pf-apPOL) (Q8ILY1 entry or part of it): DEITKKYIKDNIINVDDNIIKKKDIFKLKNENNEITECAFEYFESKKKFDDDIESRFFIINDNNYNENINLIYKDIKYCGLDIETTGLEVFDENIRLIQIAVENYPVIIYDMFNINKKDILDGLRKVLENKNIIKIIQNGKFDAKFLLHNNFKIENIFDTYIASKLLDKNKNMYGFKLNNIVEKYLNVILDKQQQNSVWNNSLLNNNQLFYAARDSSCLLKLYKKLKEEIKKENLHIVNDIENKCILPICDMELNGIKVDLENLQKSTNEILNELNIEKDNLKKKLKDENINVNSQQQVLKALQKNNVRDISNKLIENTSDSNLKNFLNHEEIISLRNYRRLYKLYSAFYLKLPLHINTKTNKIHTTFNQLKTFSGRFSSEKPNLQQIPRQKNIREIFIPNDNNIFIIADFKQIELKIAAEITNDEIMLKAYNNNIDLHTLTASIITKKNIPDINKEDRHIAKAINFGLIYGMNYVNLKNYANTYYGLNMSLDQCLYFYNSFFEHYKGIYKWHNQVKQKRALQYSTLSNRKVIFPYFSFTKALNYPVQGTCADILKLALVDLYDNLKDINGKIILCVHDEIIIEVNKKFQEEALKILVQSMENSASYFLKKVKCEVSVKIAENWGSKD

SMILES: Cc1cc(C)cc(-n2nc3c(c2NC(=O)c2ccco2)CSC3)c1 [KU0055926]
- % inhibition Apo pol 10' (DRC-1, concentration 2.5): 8.0326%
- % inhibition Apo pol 10' (DRC-1, concentration 5): 29.0516%
- % inhibition Apo pol 10' (DRC-1, concentration 10): 59.7607%
- % inhibition Apo pol 10' (DRC-1, concentration 20): 82.6519%
- % inhibition Apo pol 10' (DRC-1, concentration 40): 88.4046%
- % inhibition Apo pol 10' (DRC-1, concentration 80): 87.3935%
- % inhibition Apol 90' (DRC-1, concentration 2.5): -0.9298%
- % inhibition Apol 90' (DRC-1, concentration 5): 15.258%
- % inhibition Apol 90' (DRC-1, concentration 10): 43.5557%
- % inhibition Apol 90' (DRC-1, concentration 20): 72.7845%
- % inhibition Apol 90' (DRC-1, concentration 40): 86.0941%
- % inhibition Apol 90' (DRC-1, concentration 80): 88.1488%
- % inhibition apPOL 180' (DRC-1, concentration 2.5): -5.803%
- % inhibition apPOL 180' (DRC-1, concentration 5): 4.111%
- % inhibition apPOL 180' (DRC-1, concentration 10): 27.2882%
- % inhibition apPOL 180' (DRC-1, concentration 20): 60.1388%
- % inhibition apPOL 180' (DRC-1, concentration 40): 79.5226%
- % inhibition apPOL 180' (DRC-1, concentration 80): 84.9587%
- % inhibition Apo pol 5' (DRC-2, concentration 2.5): 11%
- % inhibition Apo pol 5' (DRC-2, concentration 5): 21%
- % inhibition Apo pol 5' (DRC-2, concentration 10): 38%
- % inhibition Apo pol 5' (DRC-2, concentration 20): 50%
- % inhibition Apo pol 5' (DRC-2, concentration 40): 54%
- % inhibition Apo pol 5' (DRC-2, concentration 80): 54%
- % inhibition Apol 40' (DRC-2, concentration 2.5): 12%
- % inhibition Apol 40' (DRC-2, concentration 5): 24%
- % inhibition Apol 40' (DRC-2, concentration 10): 41%
- % inhibition Apol 40' (DRC-2, concentration 20): 60%
- % inhibition Apol 40' (DRC-2, concentration 40): 69%
- % inhibition Apol 40' (DRC-2, concentration 80): 71%
- % inhibition ApPOL 90' (DRC-2, concentration 2.5): 10%
- % inhibition ApPOL 90' (DRC-2, concentration 5): 21%
- % inhibition ApPOL 90' (DRC-2, concentration 10): 38%
- % inhibition ApPOL 90' (DRC-2, concentration 20): 60%
- % inhibition ApPOL 90' (DRC-2, concentration 40): 71%
- % inhibition ApPOL 90' (DRC-2, concentration 80): 74%
- % inhibition apPOL 180' (DRC-2, concentration 2.5): 6.36%
- % inhibition apPOL 180' (DRC-2, concentration 5): 13%
- % inhibition apPOL 180' (DRC-2, concentration 10): 27%
- % inhibition apPOL 180' (DRC-2, concentration 20): 53%
- % inhibition apPOL 180' (DRC-2, concentration 40): 68%
- % inhibition apPOL 180' (DRC-2, concentration 80): 74%
- % inhibition Apo pol 5' (conc. 5, DRC-2): 21%
- % inhibition ApPOL 90' (conc. 5, DRC-2): 21%
- % inhibition Apo pol 5' (conc. 10, DRC-2): 38%
- % inhibition ApPOL 90' (conc. 10, DRC-2): 38%
- % inhibition Apol 40' (conc. 20, DRC-2): 60%
- % inhibition ApPOL 90' (conc. 20, DRC-2): 60%
- % inhibition Apo pol 5' (conc. 40, DRC-2): 54%
- % inhibition ApPOL 90' (conc. 40, DRC-2): 71%
- % inhibition Apo pol 5' (conc. 80, DRC-2): 54%
- % inhibition Apol 40' (conc. 80, DRC-2): 71%
- % inhibition ApPOL 90' (conc. 80, DRC-2): 74%
- % inhibition apPOL 180' (conc. 80, DRC-2): 74%
- DNA Pol (primary screen value by plate and well): 58
- DNA Pol (primary screen value of the 186 hits, unit not given): 58
